{"source": "patent US20070003531A1", "about": "“Methods for improving immunotherapy by enhancing survival of antigen-specific cytotoxic T lymphocytes” (University of Connecticut, priority 2005, published 2007)", "key": {"[1]": {"tested_on": "MART-127-35 epitope specific human primary CTL", "assay": "AICD induction and quantitation in epitope specific primary CTL (tetramer/annexin V FACS)", "type": "cell-based", "details": "pre-incubation about 45 min, restimulation with MART-127-35 peptide pulsed T2 cells, kinase inhibitors 25 μM, z-VAD-fmk 100 μM, Fc chimeras 10 μg/ml", "protocol": "FIG. 10. Effect of external death receptor blockade and MAP kinase inhibitors on AICD in the epitope specific CTLs upon secondary encounter of the cognate epitope. The CTLs were pre-incubated at optimal concentration for about 45 min. at about 37° C. with pan caspase inhibitor z-VAD-fmk (100 μM); human Fas/Fc chimera, human TNF-RI/Fc chimera, human TRAIL-RI/Fc chimera, human TRAIL-RII/Fc chimera and human IFN-γ RI/Fc chimeric proteins (10 μg/ml); p38 kinase inhibitor SB203580, JNK inhibitor anthra[1,9-cd]pyrazol-6(2H)-one (SP600125), […] inhibitor PD98059 (25 μM). Then the pretreated as well as untreated CTLs were incubated with T2 cells either alone or loaded with peptide. About 4 hours after secondary exposure cells were stained for determining: (A) Number of tetramer^+ cells out of the CD8^+ T cells [Top panel]; number of tetramer^+/Annexin V^+ and tetramer^+/Annexin^− populations [Bottom panel]. […] (B) Effect of the MAP kinase inhibitors on IFN-γ response by the effector cells.\nAICD induction and quantitation. AICD in the human primary CTL primed and expanded specifically for melanoma epitope MART-127-35 was induced by re-exposure of the CTLs to MART-127-35 peptide (1 μg/ml) as reported previously. Staurosporine mediated death was induced by exposure of CTL to 1 μM staurosporine for 4 hr. Quantitation of AICD and the effects of various inhibitors on AICD of CTLs, were carried out by annexin-V staining followed by FACS analyses as reported previously.\nIn test whether or not the epitope specific primary CTLs undergo AICD, the activated CTLs were exposed to peptide [1 μg/ml] loaded T2 cells (Effector: Target=100) at different time points of the cultures. Thereafter, the evidence of apoptosis was determined by flow cytometry with triple color staining (CD8, MART-127-35/HLA-A2 tetramer and annexin V) at different time points (4-18 h). Experiments were carried out in triplicate wells and significance was calculated by One-way analysis of variance (ANOVA) using Sigma Stat statistical software, Chicago, Ill.\nTo evaluate the effect of various agents in modulating AICD, the CTLs were pre-incubated with various compounds at optimal concentration for 45 min. at 37° C. and then exposed to T2 cells alone or loaded with peptide."}, "[2]": {"tested_on": "Bcl family proteins in CTL", "assay": "Western blot of Bcl family pro- and anti-apoptotic proteins in CTL after secondary stimulation", "type": "cell-based, human", "protocol": "(§1) FIG. 12. Effect of antigen specific secondary stimulation on mitochondrial transmembrane membrane potential (Δψm), pro- and anti-apoptotic protein and expression of cell surface molecules. (A) Differential effect on membrane polarization in Mart-1 primary CTLs (top panel) vs. Jurkat T cells (bottom panel). CTLs were incubated with T2 cells either alone or loaded with peptide. After overnight secondary exposure cells were stained with Mart-1 tetramer/CD8 and DiOC6. Histogram represents the fluorescence of DiOC6 in the gated antigen specific tetramer^+ population (top panel). Jurkat T cells were also analyzed for modulation of membrane potential after TCR-driven stimulation (bottom panel). Values represent the mean±SD of fluorescence intensity triplicates from one out of three separate experiment. *p<0.001 (One Way ANOVA). […] (C) Expression of different cell surface receptors for survival or death signal in antigen specific population upon secondary stimulation. Values on left upper corner represent the geometric mean of the fluorescence intensity for that particular marker when stimulated with T2/MAGE-3271-279 while that on right upper corner represent the geometric mean of the fluorescence intensity when stimulated with T2/MART-127-35.\nWashed cell pellets were lysed in RIPA buffer and a cytosolic fraction was prepared by spinning the lysate at 15,000 rpm. Proteins (20 μg/well) were separated on 15% SDS-PAGE, transferred onto nitrocellulose filters, probed with appropriate antibodies. Antibodies for Bcl-2, phospho Bcl-2, Bim, BCI-XL, Bax, Actin were purchased from Santa-Cruz Biotechnology, Santa-Cruz, Calif. Anti-Mcl-1 antibody was purchased from BD Pharmingen, Palo Alto, Calif. Blots were developed by HRP-tagged secondary antibody (Santa-Cruz Biotechnology, Santa-Cruz, Calif.) using a chemoluminescence kit (Amersham Biosciences, Buckinghamshire, U. K.)."}, "Mart-1 primary CTLs": {"tested_on": "Mart-1 primary CTLs", "assay": "Mitochondrial transmembrane potential (DiOC6 staining)", "type": "cell-based, human", "details": "induced by re-stimulation with cognate peptide; data not shown", "protocol": "as §1"}, "[3]": {"tested_on": "PARP cleavage in Jurkat cells", "assay": "PARP cleavage in staurosporine treated Jurkat cells (immunoblot)", "type": "cell-based, human", "protocol": "FIG. 1. […] (A) Effect of the JNK inhibitor SP600125 on AICD in the MART-127-35 epitope specific CTL. Histogram represents FACS analysis of the percent of MART-127-35 epitope specific CTLs that were tetramer positive and annexin negative after restimulation with MAGE-3271-279 control peptide (M3) pulsed T2 cells or MART-127-35 peptide (M1) pulsed T2 cells either alone or re-stimulated after pre-incubation with JNK inhibitor SP600125, p38-kinase inhibitor SB203580, ERK1/2 inhibitor PD98059 or caspase-inhibitor z-VAD-fink. MAGE-3271-279. (B) JNK activation results in phosphorylation of c-Jun during AICD in CTL that is blocked by SP600125. Immunoblots show analyses of CTL extracts probed with anti-phosphor-c-Jun, anti-c-Jun, and anti-actin antibodies. […] (i) Jurkat cells were treated with PMA+ionomycin in the absence or presence of SP600125 and JNK activation (c-Jun phosphorylation) was assessed with anti-phospho-c-Jun antibody. […] (ii) Jurkat cells were treated with Staurosporine for 1 and 4 hrs in the absence (S) or presence of caspase inhibitor, z-VAD-fmk (CI), JNK inhibitor, SP600125 (SP) or ERK1/2 inhibitor PD98059 (PD) and cleavage of PARP was detected by immunoblotting, using actin as a loading control. […] Percent annexin positive cells in all samples were quantified by FACS analysis and shown below the blot […]"}, "[4]": {"tested_on": "MART-127-35 epitope specific primary CTL", "assay": "DNA fragmentation analysis (agarose gel electrophoresis)", "type": "cell-based, human", "details": "1 μM staurosporine for 4 hr", "experimental": "Standard 2% agarose gel-electrophoresis (panel i) and pulse field DNA gel electrophoresis (panel ii) of: CTL in steady state (C) and after restimulation by the cognate peptide (M1).\nDNA fragmentation analysis. DNA fragmentation was assessed by measuring single stranded nick generation, using single stranded DNA nick specific antibody (Alexis Biochemicals, CA, USA) with flow-cytometry and immunofluorescence according to published protocols. Antibody-stained cells were counterstained with 0.1 μg/ml DAPI in PBS for 10 min. Agarose gel electrophoresis was used to detect small oligosomal DNA fragmentation and pulse field electrophoresis (Bio-Rad CHEF-DRIII) was used (6 V/cm, 20-60 sec pulse overnight) to detect large-scale DNA fragmentation."}, "Jurkat cells": {"tested_on": "Jurkat cells", "assay": "Staurosporine-induced death of Jurkat cells (annexin FACS)", "type": "cell-based, human", "details": "annexin positive cells by FACS", "protocol": "FIG. 1. […] (A) Effect of the JNK inhibitor SP600125 on AICD in the MART-127-35 epitope specific CTL. Histogram represents FACS analysis of the percent of MART-127-35 epitope specific CTLs that were tetramer positive and annexin negative after restimulation with MAGE-3271-279 control peptide (M3) pulsed T2 cells or MART-127-35 peptide (M1) pulsed T2 cells either alone or re-stimulated after pre-incubation with JNK inhibitor SP600125, p38-kinase inhibitor SB203580, ERK1/2 inhibitor PD98059 or caspase-inhibitor z-VAD-fink. MAGE-3271-279. (B) JNK activation results in phosphorylation of c-Jun during AICD in CTL that is blocked by SP600125. Immunoblots show analyses of CTL extracts probed with anti-phosphor-c-Jun, anti-c-Jun, and anti-actin antibodies. […] (i) Jurkat cells were treated with PMA+ionomycin in the absence or presence of SP600125 and JNK activation (c-Jun phosphorylation) was assessed with anti-phospho-c-Jun antibody. […] (ii) Jurkat cells were treated with Staurosporine for 1 and 4 hrs in the absence (S) or presence of caspase inhibitor, z-VAD-fmk (CI), JNK inhibitor, SP600125 (SP) or ERK1/2 inhibitor PD98059 (PD) and cleavage of PARP was detected by immunoblotting, using actin as a loading control. […] Percent annexin positive cells in all samples were quantified by FACS analysis and shown below the blot"}}, "data": [{"compound": "COc1cccc(-c2cc(=O)c3ccccc3o2)c1N", "note": "[PD98059]", "values": [{"measurement": "protection/rescue of CTL from AICD", "setting": "[1]", "value": "could not protect"}]}, {"compound": "C[S+]([O-])c1ccc(-c2nc(-c3ccncc3)c(-c3ccc(F)cc3)[nH]2)cc1", "note": "(centres unmarked) [SB203580]", "values": [{"measurement": "BCI-XL expression", "setting": "[2]", "value": "non-selectively up regulated"}, {"measurement": "Bcl-2 expression", "setting": "[2]", "value": "non-selectively up regulated"}, {"measurement": "protection/rescue of CTL from AICD", "setting": "[1]", "value": "could not protect"}, {"measurement": "level of hyper polarization of mitochondrial transmembrane potential", "setting": "Mart-1 primary CTLs", "value": "decreased"}]}, {"compound": "CN[C@@H]1C[C@H]2O[C@@](C)([C@@H]1OC)n1c3ccccc3c3c4c(c5c6ccccc6n2c5c31)C(=O)NC4", "note": "[staurosporine]", "values": [{"measurement": "PARP cleavage", "setting": "[3]; Jurkat cells treated with staurosporine (1 μM)", "value": "cleaved"}, {"measurement": "oligosomal DNA fragmentation", "setting": "[4]", "value": "clearly evident"}]}, {"compound": "z-VAD-fmk", "values": [{"measurement": "effect on PARP cleavage induced by staurosporine", "setting": "[3]; Jurkat cells, z-VAD-fmk 100 μM, staurosporine 1 μM", "value": "blocked"}, {"measurement": "protection from staurosporine-induced death", "setting": "Jurkat cells", "value": "protected"}, {"measurement": "protection/rescue of CTL from AICD", "setting": "[1]", "value": "could not protect"}, {"measurement": "protection/rescue of CTL from AICD", "setting": "[1]; listed as z-VAD-fink", "value": "did not prevent"}]}]}
